Reference: patent US9510598B2, “Nitrogen-containing heterocyclic compounds for plant disease control” (BAYER CROPSCIENCE AG, priority 2012, dated 2016)
Like-named read-outs stand apart in the source and are kept apart here.

Legend:
[1] = system: Septoria tritici; experiment: In vivo preventive test on Septoria tritici (leaf spot on wheat); conditions: 500 ppm; wheat plants sprayed 24 hours before contamination; grading 21 to 28 days after contamination vs control plants
Procedure, shortened: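 Scipion wheat at 1-leaf stage sprayed with compound, controls receiving acetone/tween/DMSO/water vehicle; 24 h later leaves inoculated with Septoria tritici spores (500 000 spores per ml). Efficacy (%) graded versus control plants 21 to 28 days after contamination.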

[2] = format: physicochemical
[3] = system: Sphaerotheca fuliginea; experiment: In vivo preventive test on Sphaerotheca fuliginea (powdery mildew on cucurbits); conditions: 500 ppm; gherkin plants sprayed 24 hours before contamination; grading 12 days after contamination vs control plants
Procedure: Gherkin plants (“Vert petit de Paris” variety), sown in starter cups on a 50/50 peat soil-pozzolana substrate and grown at 24° C., are treated at the Z11 cotyledon stage by spraying with the active ingredient prepared as described above. Plants, used as controls, are treated with the mixture of acetone/tween/DMSO/water not containing the active material. After 24 hours, the plants are contaminated by spraying the cotyledons with an aqueous suspension of Sphaerotheca fuliginea spores (100 000 spores per ml). The spores are collected from infected plants. […] Grading (% of efficacy) is carried out 12 days after the contamination, in comparison with the control plants.

[4] = system: Botrytis cinerea; experiment: In vivo preventive test on Botrytis cinerea (grey mould); conditions: 500 ppm; gherkin plants sprayed 24 hours before contamination; grading 4-5 days after contamination vs control plants
Procedure: Gherkin plants (“Vert petit de Paris” variety), sown in starter cups on a 50/50 peat soil-pozzolana substrate and grown at 24° C., are treated at the Z11 cotyledon stage by spraying with the active ingredient prepared as described above. Plants, used as controls, are treated with the mixture of acetone/tween/DMSO/water not containing the active material. After 24 hours, the plants are contaminated by spraying the cotyledons with an aqueous suspension of cryopreserved Botrytis cinerea spores (50 000 spores per ml). The spores are suspended in a nutrient solution composed of 10 g/L of PDB, 50 g/L of D-Fructose, 2 g/L of NH4NO3 and 1 g/L of KH2PO4. The contaminated gherkin plants are incubated at 17° C. and at 80% relative humidity. Grading (% of efficacy) is carried out 4-5 days after the contamination, in comparison with the control plants.

[5] = HPLC on reversed phase columns, method [a]: pH 2.7, 0.1% formic acid in water / acetonitrile, linear gradient 10% to 95% acetonitrile
[6] = method [a]: HPLC/LC-MS on reversed phase at pH 2.7, 0.1% formic acid in water / acetonitrile, gradient 10% to 95% acetonitrile
[7] = method [a]: HPLC/LC-MS on reversed phase at pH 2.7, 0.1% formic acid in water / acetonitrile, linear gradient 10% to 95% acetonitrile

| log P [2, 5] | SMILES | % of efficacy (protection) [1] | % of efficacy (protection) [3] | % of efficacy (protection) [4] | other results |
| --- | --- | --- | --- | --- | --- |
| 2.18[a] | C#Cc1cnc2ccc(C3=NOC(C)(C(=O)NC(C)C4CCOC4)C3)cc2c1 (stereo not shown) [compound 341] | 100% | 98% |  |  |
|  | C#CCONC(=O)C1(C)CC(c2ccc3ncc(C#C)cc3c2)=NO1 (stereo not shown) [compound 503] | 71% | 78% |  | log P [2, 6]: 1.95[a] |
| 2.96[a] | C#Cc1cnc2ccc(C3=NOC(C)(C(=O)NC(C)c4ccsc4)C3)cc2c1 (stereo not shown) [compound 336] | 100% | 81% |  |  |
|  | CCn1cc(CNC(=O)C2(C(F)(F)F)CC(c3cc4cc(Br)cnc4c(F)c3F)=NO2)c(C)n1 (stereo not shown) [compound 6] | 71% | 89% |  | Log P ([2]; method [a]: HPLC/LC-MS on reversed phase at pH 2.7, 0.1% formic acid in water and acetonitrile, linear gradient 10% to 95% acetonitrile): 3.23^[a] |
|  | C#Cc1cnc2ccc(C3=NOC(OC)(C(=O)NCCCOCC)C3)cc2c1 (stereo not shown) [compound 408] | 100% | 100% |  | log P [2, 6]: 2.39[a] |
|  | CC(C)NC(=O)C1(C)CC(c2ccc3ncc(C#C[Si](C)(C)C)cc3c2)=NO1 (stereo not shown) [Compound No. 150] | 100% | 95% |  | chromatographic logP ([2]; HPLC reversed phase, pH 2.7, 0.1% formic acid in water / acetonitrile, linear gradient 10% to 95% acetonitrile, calibration with alkan-2-ones, read-out: log P (HCOOH)): 4.41 |
| 3.13[a] | CC(NC(=O)C1(C)CC(c2ccc3ncc(Br)cc3c2)=NO1)C(F)(F)F (stereo not shown) [compound 345] | 100% | 94% |  |  |
|  | CC1COCCC1NC(=O)C1(C)CC(c2ccc3ncc(Br)cc3c2)=NO1 (mixture of isomers) [compound 309] | 86% | 100% |  |  |
|  | COCC(C)NC(=O)C1(C)CC(c2ccc3ncc(Br)cc3c2)=NO1 (racemic) [compound 368] | 100% | 100% |  | log P [2, 6]: 2.54[a] |
| 2.68[a] | C#Cc1cnc2ccc(C3=NOC(C)(C(=O)NC(C)c4ccc(Cl)nc4)C3)cc2c1 (stereo not shown) [compound 525] | 93% |  | 100% |  |
| 3.48[a] | CC1(C(=O)NC2CCC2)CC(c2cc(Cl)c3ncc(Br)cc3c2)=NO1 (stereo not shown) [compound 539] | 83% |  | 100% |  |
|  | CCOCC(C)NC(=O)C1(C)CC(c2ccc3ncc(Br)cc3c2)=NO1 (mixture of isomers) [compound 374] | 100% | 100% |  |  |
|  | C#Cc1cnc2ccc(C3=NOC(C)(C(=O)NCc4ccccc4Cl)C3)cc2c1 (stereo not shown) [compound 168] | 71% |  | 99% | log P [2, 7]: 3.23^[a] |
| 1.44[a] | CC(NC(=O)C1(C)CC(c2ccc3ncc(Br)cc3c2)=NO1)c1ccncc1 (stereo not shown) [compound 337] | 78% | 88% |  |  |
|  | C#Cc1cnc2ccc(C3=NOC(C)(C(=O)NCc4cccc(OC(F)(F)F)c4)C3)cc2c1 (stereo not shown) [compound 190] | 71% |  | 89% | log P [2, 7]: 3.48^[a] |
|  | CCOCCCNC(=O)C1(C(C)C)CC(c2ccc3ncc(Br)cc3c2)=NO1 (stereo not shown) [compound 64] | 70% |  | 77% | log P [2, 7]: 3.46^[a] |
| 2.13[a] | C#Cc1cnc2ccc(C3=NOC(C)(C(=O)NC4CC4)C3)cc2c1 (stereo not shown) [compound 314] | 100% | 81% |  |  |
| 2.78[a] | CCn1cc(CNC(=O)C2(OC)CC(c3cc(Cl)c4ncc(Br)cc4c3)=NO2)c(C)n1 (stereo not shown) [compound 566] | 100% | 89% |  |  |
|  | C#Cc1cnc2ccc(C3=NOC(CC)(C(=O)NC4CC4)C3)cc2c1 (racemic) [compound 439] | 93% | 78% |  | log P [2, 6]: 2.44[a] |
|  | C#Cc1cnc2ccc(C3=NOC(C)(C(=S)NCc4cnc(C)cn4)C3)cc2c1 (stereo not shown) [compound 481] | 86% |  | 97% | log P [2, 6]: 2.84[a] |
| 1.75^[a] | C#Cc1cnc2ccc(C3=NOC(C)(C(=O)NC4COC4)C3)cc2c1 (stereo not shown) [compound 238] | 93% |  | 82% |  |

| log P [2, 5] | SMILES | % of efficacy (protection) [1] | % of efficacy (protection) [3] | % of efficacy (protection) [4] | other results |
| --- | --- | --- | --- | --- | --- |
|  | C=CC1(C(=O)NC(C)C)CC(c2ccc3ncc(I)cc3c2)=NO1 (stereo not shown) [compound 731] | 100% | 75% |  | log P ([2]; HPLC on reversed phase columns, method [a]: pH 2.7, 0.1% formic acid in water and acetonitrile, linear gradient 10% to 95% acetonitrile): 3.21[a] |
| 3.19[a] | CCOCCCNC(=O)C1(C(F)F)CC(c2ccc3ncc(I)cc3c2)=NO1 (stereo not shown) [compound 619] | 71% |  | 73% |  |
| 3.11[a] | CC1(C(=O)NCCCOCC(F)(F)F)CC(c2ccc3ncc(Br)cc3c2)=NO1 (stereo not shown) [compound 323] | 78% | 81% |  |  |
|  | C#Cc1cnc2ccc(C3=NOC(C)(C(=O)NCC4(C)CCCO4)C3)cc2c1 (stereo not shown) [compound 128] | 83% |  | 98% | log P [2, 7]: 2.42^[a] |
| 2.39[a] | CCNC(=O)C1(C)CC(c2ccc3ncc(Br)cc3c2)=NO1 (stereo not shown) [compound 528] | 97% |  | 99% |  |
| 3.25[a] | CC(C)NC(=O)C1(C2CC2)CC(c2ccc3ncc(Br)cc3c2)=NO1 (stereo not shown) [compound 267] | 93% |  | 85% |  |
| 2.26[a] | C#Cc1cnc2ccc(C3=NOC(C)(C(=O)Nc4cn(CC)nc4C)C3)cc2c1 (stereo not shown) [compound 529] | 100% |  | 100% |  |
| 2.77[a] | C#Cc1cnc2ccc(C3=NOC(C)(C(=O)NCCCOCC(F)(F)F)C3)cc2c1 (stereo not shown) [compound 326] | 98% | 88% |  |  |
| 3.17[a] | CC(NC(=O)C1(C)CC(c2ccc3ncc(Br)cc3c2)=NO1)C1CC1 (stereo not shown) [compound 332] | 100% | 98% |  |  |
| 2.28[a] | C#Cc1cnc2ccc(C3=NOC(C)(C(=O)NC(C)c4nccs4)C3)cc2c1 (stereo not shown) [compound 334] | 100% | 94% |  |  |
|  | C#Cc1cnc2ccc(C3=NOC(C)(C(=O)NC(C)CC(=O)OCC)C3)cc2c1 (mixture of isomers) [compound 453] |  | 88% |  | log P [2, 6]: 2.57[a] |
|  | Cn1cc(CNC(=O)C2(C)CC(c3ccc4ncc(Br)cc4c3)=NO2)cn1 (stereo not shown) [compound 176] | 93% | 83% |  | log P [2, 7]: 2.07^[a] |
|  | C#Cc1cnc2ccc(C3=NOC(C)(C(=O)NC4CCOCC4)C3)cc2c1 (stereo not shown) [compound 502] | 100% |  | 98% | log P [2, 6]: 2.01[a] |
| 2.75^[a] | CCn1cc(CNC(=O)C23CCCC2C(c2ccc4ncc(Br)cc4c2)=NO3)c(C)n1 (stereo not shown) [compound 261] | 97% | 85% |  |  |
| 2.84[a] | Cc1cnc(CNC(=O)C2(C)CC(c3cc(C)c4ncc(Br)cc4c3)=NO2)cn1 (stereo not shown) [compound 537] | 100% |  | 100% |  |
|  | CCC(COC)NC(=O)C1(C)CC(c2ccc3ncc(Br)cc3c2)=NO1 (racemic) [compound 377] | 100% | 98% |  | log P [2, 6]: 2.88[a] |
| 2.77[a] | C#Cc1cnc2ccc(C3=NOC(C)(C(=O)NC(C)C(F)(F)F)C3)cc2c1 (stereo not shown) [compound 343] | 100% | 100% |  |  |
|  | CSc1cnc2ccc(C3=NOC(C)(C(=O)NC(C)C)C3)cc2c1 (stereo not shown) [compound 80] |  | 93% |  | log P [2, 7]: 2.44^[a] |
| 2.81[a] | CCSc1cnc2ccc(C3=NOC(C)(C(=O)NC(C)C)C3)cc2c1 (stereo not shown) [compound 277] |  | 71% |  |  |
|  | C#Cc1cnc2ccc(C3=NOC(C)(C(=O)NCc4cnn(-c5ccccc5)c4)C3)cc2c1 (stereo not shown) [compound 186] | 71% |  | 92% | log P [2, 7]: 2.78^[a] |
